Assay results taken from the NIST ThermoML archive (doi:10.1016/j.tca.2012.02.012).
Numbers after ± are expanded uncertainties.

How the values were obtained:
[1] = xn = mol fraction of the nth substance listed; details: 1850 K, 101 kPa, Liquid, Knudsen
[2] = excess molar enthalpy (molar enthalpy of mixing); xn = mol fraction of the nth substance listed; details: 1850 K, 101 kPa, Liquid, Knudsen

Row | excess molar Gibbs energy ([1]; x1 = 0.5) | excess molar enthalpy ([2]; x1 = 0.5) | excess molar Gibbs energy ([1]; x2 = 0.5) | excess molar enthalpy ([2]; x2 = 0.5) | Compound
1 | -0.1819 ± 0.000239 kcal/mol | 1.76 ± 0.0179 kcal/mol |  |  | [Fe] [iron] + [Au]
2 |  |  | -1.7232 ± 0.000239 kcal/mol | -5.999 ± 0.0598 kcal/mol | [Pd] [palladium] + [Fe]
